The values below come from US6677368B2, “4-aryl substituted indolinones” (Sugen, Inc., priority 2000, dated 2004).

What all share (format): biochemical
Assay [1] has as its target FGFR1 (Homo sapiens, UniProt P11362). Nature of the assay: FGFR1 bioassay (ELISA, in vitro kinase activity). Conditions: purified GST-FGFR1, poly(Glu-Tyr) substrate. The protocol: This assay is used to measure the in vitro kinase activity of FGF1-R in an ELISA assay.
1. Costar 96-well ELISA plates (Corning Catalog #3369).
2. Poly(Glu-Tyr) (Sigma Catalog #P0275).
4. 50 mM Hepes Buffer Solution.
5. Blocking Buffer (5% BSA/PBS).
6. Purified GST-FGFR1 (SUGEN, Inc.)
7. Kinase Dilution Buffer. Mix 500 μl 1M Hepes (GIBCO), 20 μl 5% BSA/PBS, 10 μl 100 mM sodium orthovanadate and 50 μl 5M NaCl.
9. ATP/MnCl2 phosphorylation mix: mix 20 μL ATP, 400 μL 1M MnCl2 and 9.56 ml dH2O.
10. NUNC 96-well V bottom polypropylene plates (Applied Scientific Catalog #AS-72092).
12. 0.05% TBST Add 500 μL TWEEN to 1 liter TBS.
13. Rabbit polyclonal anti-phosphotyrosine serum (SUGEN, Inc.).
14. Goat anti-rabbit IgG peroxidase conjugate (Biosource, Catalog #ALI0404).
1. Coat Costar 96 well ELISA plates with 1 μg per well Poly(Glu-Tyr) in 100 μl PBS. Store overnight at 4° C.
2. Wash coated plates once with PBS.
3. Add 150 μL of 5%BSA/PBS Blocking Buffer to each well. Incubate, with shaking, for 1 hr at room temperature.
4. Wash plate 2× with PBS, then once with 50 mM Hepes. Pat plates on a paper towel to remove excess liquid and bubbles.
5. Add 25 μL of 0.4 mM test compound in 4% DMSO or 4% DMSO alone (controls) to plate.
6. Dilute purified GST-FGFR1 in Kinase Dilution Buffer (5 ng kinase/50 μl KDB/well).
7. Add 50 μL of diluted kinase to each well.
8. Start kinase reaction by adding 25 μl/well of freshly prepared ATP/Mn++ (0.4 ml 1M MnCl2, 40 μL 10 mM ATP, 9.56 ml dH2O), freshly prepared).
9. Stop reaction with 25 μL of 0.5M EDTA.
10. Wash plate 4× with fresh TBST.
11. Make up Antibody Dilution Buffer: For 50 ml, mix 5 ml of 5% BSA, 250 μl of 5% milk and 50 μl of 100 mM sodium vanadate, bring to final volume with 0.05% TBST.
12. Add 100 μl per well of anti-phosphotyrosine (1:10000 dilution in ADB). Incubate, with shaking for 1 hr. at room temperature.
14. Add 100 μl per well of Biosource Goat anti-rabbit IgG peroxidase conjugate (1:6000 dilution in ADB). Incubate, with shaking for 1 hr. at room temperature.
15. Wash as in step 10 and then with PBS to remove bubbles and excess TWEEN.
16. Add 100 μl of ABTS/H2O2 solution to each well.
17. Incubate, with shaking, for 10 to 20 minutes. Remove any bubbles.
18. Read assay on Dynatech MR7000 ELISA reader: test filter at 410 nM, reference filter at 630 nM.
A general note: In an ELISA, binding on a coated surface is turned into a signal by an enzyme label.

The target of assay [2] is T1, PDGFR (UniProt P09619).
T1 construct: PDGFR-β expressing NIH 3T3 cell lysate (SUGEN, Inc.)
Nature of the assay: PDGFR bioassay (ELISA, in vitro kinase activity). Conditions: PDGFR-β expressing NIH 3T3 cell lysate, 20 μM ATP. Here is the method: This assay is used to the in vitro kinase activity of PDGFR in an ELISA assay.
1. Corning 96-well ELISA plates
2. 28D4C10 monoclonal anti-PDGFR antibody (SUGEN, Inc.).
5. Blocking Buffer (same as for EGFR bioassay).
6. PDGFR-β expressing NIH 3T3 cell lysate (SUGEN, Inc.).
11. Kinase buffer phosphorylation mix: for 10 ml, mix 250 μl 1M TRIS, 200 μl 5M NaCl, 100 μl 1M MnCl2 and 501l 100 mM Triton X-100 in enough dH2O to make 10 ml.
12. NUNC 96-well V bottom polypropylene plates.
14. Rabbit polyclonal anti-phosphotyrosine serum (SUGEN, Inc.).
15. Goat anti-rabbit IgG peroxidase conjugate (Biosource Cat. No. ALI0404).
17. Hydrogen peroxide, 30% solution.
1. Coat Corning 96 well ELISA plates with […] 28D4C 10 in 100 μl PBS per well, hold overnight at 4° C.
2. Remove unbound 28D4C10 from wells by inverting plate to remove liquid. Wash 1× with dH2O. Pat the plate on a paper towel to remove excess liquid.
3. Add 150 μl of Blocking Buffer to each well. Incubate for 30 min. at room temperature with shaking.
4. Wash plate 3× with deionized water, then once with TBST. Pat plate on a paper towel to remove excess liquid and bubbles.
5. Dilute lysate in HNTG (10 μg lysate/100 μl HNTG).
6. Add 100 μl of diluted lysate to each well. Shake at room temperature for 60 min.
7. Wash plates as described in Step 4.
8. Add 80 μl working kinase buffer mix to ELISA plate containing captured PDGFR.
9. Dilute test compound 1:10 in TBS in 96-well polypropylene plates.
10. Add 10 μl diluted test compound to -ELISA plate. To control wells, add 10 μl TBS+10% DMSO. Incubate with shaking for 30 minutes at room temperature.
11. Add 10 μl ATP directly to all wells except negative control well (final well volume should be approximately 100 μl with 20 μM ATP in each well.) Incubate 30 minutes with shaking.
12. Stop reaction by adding 10 μl of EDTA solution to each well.
13. Wash 4× with deionized water, twice with TBST.
14. Add 100 μl anti-phosphotyrosine (1:3000 dilution in TBST) per well.
Incubate with shaking for 30-45 min. at room temperature.
16. Add 100 μl Biosource Goat anti-rabbit IgG peroxidase conjugate (1:2000 dilution in TBST) to each well. Incubate with shaking for 30 min. at room temperature.
18. Add 100 μl of ABTS/H2O2 solution to each well.
19. Incubate 10 to 30 minutes with shaking. Remove any bubbles.
20. If necessary stop reaction with the addition of 100 μl 0.2 M HCl per well.
21. Read assay on Dynatech MR7000 ELISA reader with test filter at 410 nM and reference filter at 630 nM.

Assay [3] addresses EGFR (Homo sapiens, UniProt P00533). Nature of the assay: EGFR kinase inhibition.

Sequence of FGFR1 (P11362 22-822, species assumed): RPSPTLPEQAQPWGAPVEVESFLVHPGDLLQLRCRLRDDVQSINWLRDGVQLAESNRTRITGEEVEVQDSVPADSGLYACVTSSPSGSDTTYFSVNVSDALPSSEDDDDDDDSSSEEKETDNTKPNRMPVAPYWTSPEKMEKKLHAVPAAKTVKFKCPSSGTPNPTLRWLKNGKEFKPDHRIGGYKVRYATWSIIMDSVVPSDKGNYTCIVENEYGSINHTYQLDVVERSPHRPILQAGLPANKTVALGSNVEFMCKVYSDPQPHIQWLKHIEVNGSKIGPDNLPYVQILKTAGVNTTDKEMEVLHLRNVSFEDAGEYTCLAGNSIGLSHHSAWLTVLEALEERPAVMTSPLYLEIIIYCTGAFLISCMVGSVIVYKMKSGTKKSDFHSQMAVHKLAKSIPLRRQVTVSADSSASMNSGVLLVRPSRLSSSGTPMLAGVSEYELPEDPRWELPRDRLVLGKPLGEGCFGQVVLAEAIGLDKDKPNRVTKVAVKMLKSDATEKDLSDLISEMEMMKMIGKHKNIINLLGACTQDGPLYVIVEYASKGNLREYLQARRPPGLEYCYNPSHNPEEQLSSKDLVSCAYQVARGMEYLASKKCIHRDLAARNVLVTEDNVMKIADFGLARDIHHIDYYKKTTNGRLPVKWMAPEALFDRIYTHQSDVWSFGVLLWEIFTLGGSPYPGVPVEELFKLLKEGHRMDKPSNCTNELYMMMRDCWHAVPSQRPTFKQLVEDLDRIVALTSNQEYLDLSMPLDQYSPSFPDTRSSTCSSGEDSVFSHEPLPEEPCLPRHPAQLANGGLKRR
Sequence of EGFR (P00533 25-1210, species assumed): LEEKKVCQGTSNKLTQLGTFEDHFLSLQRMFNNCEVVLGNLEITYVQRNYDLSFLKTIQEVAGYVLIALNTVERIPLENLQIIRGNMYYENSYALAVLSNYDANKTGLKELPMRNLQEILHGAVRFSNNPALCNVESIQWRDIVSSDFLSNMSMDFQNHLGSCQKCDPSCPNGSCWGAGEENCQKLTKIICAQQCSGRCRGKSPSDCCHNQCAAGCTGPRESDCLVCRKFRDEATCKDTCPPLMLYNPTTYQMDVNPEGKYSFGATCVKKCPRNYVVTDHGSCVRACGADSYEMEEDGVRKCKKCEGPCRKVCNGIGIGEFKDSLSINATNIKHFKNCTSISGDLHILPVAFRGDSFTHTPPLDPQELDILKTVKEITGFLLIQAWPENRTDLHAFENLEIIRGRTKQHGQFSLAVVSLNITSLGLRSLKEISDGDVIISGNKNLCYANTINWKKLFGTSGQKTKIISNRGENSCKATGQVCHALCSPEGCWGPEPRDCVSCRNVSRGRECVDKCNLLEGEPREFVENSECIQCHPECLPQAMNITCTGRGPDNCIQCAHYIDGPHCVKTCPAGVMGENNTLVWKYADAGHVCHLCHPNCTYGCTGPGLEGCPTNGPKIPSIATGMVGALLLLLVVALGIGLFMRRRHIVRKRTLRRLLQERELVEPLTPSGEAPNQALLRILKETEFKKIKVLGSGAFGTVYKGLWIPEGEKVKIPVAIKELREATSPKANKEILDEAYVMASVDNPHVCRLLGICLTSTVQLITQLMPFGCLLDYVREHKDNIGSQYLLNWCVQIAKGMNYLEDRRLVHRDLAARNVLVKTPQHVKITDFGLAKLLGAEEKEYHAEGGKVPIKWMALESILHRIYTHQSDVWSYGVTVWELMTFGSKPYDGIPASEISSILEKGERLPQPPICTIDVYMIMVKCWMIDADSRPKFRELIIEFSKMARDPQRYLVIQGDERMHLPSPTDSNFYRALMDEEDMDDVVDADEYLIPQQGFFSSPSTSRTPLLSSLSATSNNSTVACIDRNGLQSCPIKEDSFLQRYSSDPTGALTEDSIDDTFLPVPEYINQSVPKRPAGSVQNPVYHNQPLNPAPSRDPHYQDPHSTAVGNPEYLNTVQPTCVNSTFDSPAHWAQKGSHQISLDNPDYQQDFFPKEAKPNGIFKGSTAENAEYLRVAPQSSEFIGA

Take `CCN(CC)CCNC(=O)c1c(C)[nH]c(/C=C2\C(=O)Nc3cccc(-c4cccc(Cl)c4)c32)c1C` [Example 29, 5-[4-(3-Chloro-phenyl)-2-oxo-1,2-dihydro-indol-3-ylidenemethyl]-2,4-dimethyl-1H-pyrrole-3-carboxylic Acid (2-Diethylamino-ethyl)-amide]: the figures for the IC50 in assay [1], in assay [2] and in assay [3] were 29 nM, 690 nM and 12900 nM, respectively.
With `Cc1[nH]c(/C=C2\C(=O)Nc3cccc(-c4ccc(Cl)cc4)c32)c(C)c1C(=O)NCCN1CCCC1` [Example 22, 5-[4-(4-Chloro-phenyl)-2-oxo-1,2-dihydro-indol-3-ylidenemethyl]-2,4-dimethyl-1H-pyrrole-3-carboxylic Acid (2-Pyrrolidin-1-yl-ethyl)-amide], the concentration for half-maximal inhibition (IC50) (in general, the concentration needed to halve the response being measured) in assay [1] came out at 57 nM; in assay [2] it was 1640 nM; in assay [3], 15900 nM.
